From patent US5461142A, “Phosphorylated derivatives of cardiodilatin/ANF peptides” (Pharma Bissendorf Peptide GmbH, priority 1987, dated 1995) come the findings set out here.

“Also recorded” adds a separate entry of the source. No end group written: not given here.

In the assay the test system is rabbit aorta muscle strips. Description: Bioactivity test: relaxation of norepinephrine-precontracted rabbit aorta muscle strips in organ bath. The assay is classed as cell-based, New Zealand rabbits. The settings on record: for relaxation activity: Example 6, tested as in Example 5, corresponding concentrations. The procedure: Muscle strips of rabbit aorta were first contracted by the action of a solution of norepinephrine (10^-7 M). After constant conditions had been adjusted, the peptides were added (position of the arrow).
The muscle relaxation continues only after a further addition of unphosphorylated alpha-nANaP.
Aortae of New Zealand rabbits were prepared. The muscular tension was measured with a muscle strip in an organ bath containing physiological saline. The strips were pre-contracted with a solution of 10^-6 M of norepinephrin, then at fill relaxation. For the assay, a further contraction was induced with 10^-7 M of norepinephrin. After constant contraction conditions had been reached, the peptides were applied.
Alpha-hANaP was phosphorylated according to EXAMPLE 1 in the presence of ATP and the catalytic subunit according to EXAMPLE 1. For control, unphosphorylated alpha-hANaP was incubated under the same conditions, however in the absence of ATP. […] Stepwise addition of unphosphorylated, phosphorylated and in turn unphosphorylated alpha-hANaP allows clearly to recognize that only unphosphorylated alpha-hANaP exerts a significant relaxing effect in comparison to phosphorylated peptide. If the addition is reversed, first phosphorylated, then unphosphorylated and again phosphorylated alpha-hANaP, the corresponding reversed relaxation effect is found.
CDD-32 (Urodilatin) is phosphorylated according to Example 1 and investigated for its biological activity in the same manner as in Example 5.

As to Urodilatin [reference compound], the relaxation activity entry is given as “dose-dependant relaxation activity”.
As to “phosphorylated CDD-28: alpha-hANaP (positions 99-126 of gamma-hANaP) phosphorylated with c-AMP-dependent proteinkinase; formula I with R = H, X = phosphate (SLRRSSCFGGRMDRIGAQSGLGCNSFRY; ends and bridges not checked; also: phosphorylated (phosphate), site not given here; UniProt P01160 124-151, looked up)”, under “FIG. 5, strips contracted with norepinephrine 10^-7 M, peptide final concentration 0.3 to 0.6×10^-9 M”, the “effect onto the smooth vascular musculature (relaxation)” value was “only a slight relaxation”. Moreover, the “muscle relaxation of precontracted rabbit aorta strips” value (FIG. 7 / Example 5, final concentration 0.3×10^-9 M, stepwise addition, listed as phosphorylated alpha-hANaP) is “an effect next to nothing; also recorded: negligible effect”.
Take “phosphorylated CDD-32: CDD-32 (urodilatin, amino acids 95-126 of gamma-hANaP) phosphorylated according to Example 1 (TAPRSLRRSSCFGGRMDRIGAQSGLGCNSFRY; ends and bridges not checked; also: phosphorylated (phosphate), site not given here; UniProt P01160 120-151, looked up)”: the relaxation activity entry is “distinctly reduced relaxation”. Further, where the note is “FIG. 8, phosphorylated versus unphosphorylated form at corresponding concentration”, the relative relaxation capability entry was “significantly lower relaxation capability than that of the unphosphorylated form”.
